The supplement of paper PMC11061612

Assays:
Carboplatin = compound: C1CC(C1)(C(=O)[O-])C(=O)[O-].N.N.[Pt+2] [Carboplatin]; conditions: max 10 µM
Summary of the method: (§1)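 Following 24 hours at 37°C and 5% CO2, cancer cell lines in 1536-well plates with 7.5 μl DMEM/F12 or RPMI and 10% FBS were dosed for 72 hours, final DMSO typically being 0.2%. CellTiter-Glo 2.0 luminescence, scaled between blank-well and DMSO-well means, gave the viability readout. Dose responses were fitted to a two-parameter logistic curve with a non-linear mixed effects model, and the single-agent IC50 was derived from this fit.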

AZD5363 = compound: C1CN(CCC1(C(=O)N[C@@H](CCO)C2=CC=C(C=C2)Cl)N)C3=NC=NC4=C3C=CN4 [AZD5363]; conditions: max 10 µM
Summary of the method: as §1

AZD1775 = compound: C=CCn1c(=O)c2cnc(Nc3ccc(N4CCN(C)CC4)cc3)nc2n1-c1cccc(C(C)(C)O)n1 [AZD1775]; conditions: max 3 µM
Summary of the method: as §1

Trametinib = compound: CC(=O)Nc1cccc(-n2c(=O)n(C3CC3)c(=O)c3c(Nc4ccc(I)cc4F)n(C)c(=O)c(C)c32)c1 [Trametinib]; conditions: max 1 µM
Summary of the method: as §1

Paclitaxel = compound: CC(=O)O[C@H]1C(=O)[C@@]2(C)[C@H]([C@H](OC(=O)c3ccccc3)[C@]3(O)C[C@H](OC(=O)[C@H](O)[C@@H](NC(=O)c4ccccc4)c4ccccc4)C(C)=C1C3(C)C)[C@]1(OC(C)=O)CO[C@@H]1C[C@@H]2O [Paclitaxel]; conditions: max 3 µM
Summary of the method: as §1

Palbociclib = compound: CC(=O)c1c(C)c2cnc(Nc3ccc(N4CCNCC4)cn3)nc2n(C2CCCC2)c1=O [Palbociclib]; conditions: max 10 µM
Summary of the method: as §1

AZD1390 = compound: CC(C)n1c(=O)n(C)c2cnc3cc(F)c(-c4ccc(OCCCN5CCCCC5)nc4)cc3c21 [AZD1390]; conditions: max 0.3 µM
Summary of the method: as §1

Venetoclax = compound: CC1(C)CCC(CN2CCN(c3ccc(C(=O)NS(=O)(=O)c4ccc(NCC5CCOCC5)c([N+](=O)[O-])c4)c(Oc4cnc5[nH]ccc5c4)c3)CC2)=C(c2ccc(Cl)cc2)C1 [Venetoclax]; conditions: max 1 µM
Summary of the method: as §1

Dasatinib = compound: CC1=C(C(=CC=C1)Cl)NC(=O)C2=CN=C(S2)NC3=CC(=NC(=N3)C)N4CCN(CC4)CCO [Dasatinib]; conditions: max 2 µM
Summary of the method: as §1

SG3199 = compound: CC1=CN2[C@@H](C1)C=NC3=CC(=C(C=C3C2=O)OC)OCCCCCOC4=C(C=C5C(=C4)N=C[C@@H]6CC(=CN6C5=O)C)OC [SG3199]; conditions: max 0.001 µM
Summary of the method: as §1

AZD2811 = compound: CCN(CCO)CCCOc1ccc2c(Nc3cc(CC(=O)Nc4cccc(F)c4)[nH]n3)ncnc2c1 [AZD2811]; conditions: max 1 µM
Summary of the method: as §1

SN-38 = compound: CCc1c2c(nc3ccc(O)cc13)-c1cc3c(c(=O)n1C2)COC(=O)[C@]3(O)CC [SN-38]; conditions: max 0.3 µM
Summary of the method: as §1

AZD0156 = compound: CN(C)CCCOc1ccc(-c2ccc3ncc4c(c3c2)n(C2CCOCC2)c(=O)n4C)cn1 [AZD0156]; conditions: max 3 µM
Summary of the method: as §1

AZD4320 = compound: CN(CC[C@H](CSC1=CC=CC=C1)NC2=C(C=C(C=C2)S(=O)(=O)NC(=O)C3=CC=C(C=C3)N4CCC(CC4)[C@H](C5=CC=CC=C5C6=CC=C(C=C6)Cl)O)S(=O)(=O)C(F)(F)F)CCO [AZD4320]; conditions: max 1 µM
Summary of the method: as §1

Alisertib = compound: COc1cc(Nc2ncc3c(n2)-c2ccc(Cl)cc2C(c2c(F)cccc2OC)=NC3)ccc1C(=O)O [Alisertib]; conditions: max 10 µM
Summary of the method: as §1

Etoposide = compound: COc1cc([C@@H]2c3cc4c(cc3[C@@H](O[C@@H]3O[C@@H]5CO[C@@H](C)O[C@H]5[C@H](O)[C@H]3O)[C@H]3COC(=O)[C@H]23)OCO4)cc(OC)c1O [Etoposide]; conditions: max 10 µM
Summary of the method: as §1

Gefitinib = compound: COc1cc2ncnc(Nc3ccc(F)c(Cl)c3)c2cc1OCCCN1CCOCC1 [Gefitinib]; conditions: max 10 µM
Summary of the method: as §1

Prexasertib = compound: COc1cccc(OCCCN)c1-c1cc(Nc2cnc(C#N)cn2)n[nH]1 [Prexasertib]; conditions: max 1 µM
Summary of the method: as §1

Doxorubicin = compound: COc1cccc2c1C(=O)c1c(O)c3c(c(O)c1C2=O)C[C@@](O)(C(=O)CO)C[C@@H]3O[C@H]1C[C@H](N)[C@H](O)[C@H](C)O1 [Doxorubicin]; conditions: max 1 µM
Summary of the method: as §1

AZD5153 = compound: COc1nnc2ccc(N3CCC(c4ccc(OCCN5CCN(C)C(=O)[C@H]5C)cc4)CC3)nn12 [AZD5153]; conditions: max 1 µM
Summary of the method: as §1

Lapatinib = compound: CS(=O)(=O)CCNCc1ccc(-c2ccc3ncnc(Nc4ccc(OCc5cccc(F)c5)c(Cl)c4)c3c2)o1 [Lapatinib]; conditions: max 10 µM
Summary of the method: as §1

AZD8186 = compound: C[C@@H](Nc1cc(F)cc(F)c1)c1cc(C(=O)N(C)C)cc2c(=O)cc(N3CCOCC3)oc12 [AZD8186]; conditions: max 10 µM
Summary of the method: as §1

Crizotinib = compound: C[C@@H](Oc1cc(-c2cnn(C3CCNCC3)c2)cnc1N)c1c(Cl)ccc(F)c1Cl [Crizotinib]; conditions: max 10 µM
Summary of the method: as §1

Savolitinib = compound: C[C@@H](c1ccc2nccn2c1)n1nnc2ncc(-c3cnn(C)c3)nc21 [Savolitinib]; conditions: max 1 µM
Summary of the method: as §1

AZD6738 = compound: C[C@@H]1COCCN1C2=NC(=NC(=C2)C3(CC3)[S@](=N)(=O)C)C4=C5C=CNC5=NC=C4 [AZD6738]; conditions: max 10 µM
Summary of the method: as §1

AZD5991 = compound: Cc1c2c(nn1C)CSCc1cc(n(C)n1)CSc1cc(c3ccccc3c1)OCCCc1c(C(=O)O)n(C)c3c-2c(Cl)ccc13 [AZD5991]; conditions: max 1 µM
Summary of the method: as §1

AZD7648 = compound: Cc1cc2ncnn2cc1Nc1ncc2c(n1)n(C1CCOCC1)c(=O)n2C [AZD7648]; conditions: max 10 µM
Summary of the method: as §1

Taselisib = compound: Cc1nc(-c2cn3c(n2)-c2ccc(-c4cnn(C(C)(C)C(N)=O)c4)cc2OCC3)n(C(C)C)n1 [Taselisib]; conditions: max 10 µM
Summary of the method: as §1

Selumetinib = compound: Cn1cnc2c(F)c(Nc3ccc(Br)cc3Cl)c(C(=O)NOCCO)cc21 [Selumetinib]; conditions: max 10 µM
Summary of the method: as §1

SRA737 = compound: N#Cc1cnc(Nc2cc(NC[C@H]3CNCCO3)c(C(F)(F)F)cn2)cn1 [SRA737]; conditions: max 10 µM
Summary of the method: as §1

MK-2206 = compound: NC1(c2ccc(-c3nc4ccn5c(=O)[nH]nc5c4cc3-c3ccccc3)cc2)CCC1 [MK-2206]; conditions: max 10 µM
Summary of the method: as §1

Gemcitabine = compound: Nc1ccn([C@@H]2O[C@H](CO)[C@@H](O)C2(F)F)c(=O)n1 [Gemcitabine]; conditions: max 0.3 µM
Summary of the method: as §1

[1] = compound: O=C(Nc1ccc2[nH]nc(-c3ccncc3)c2c1)[C@@H]1CCN(CC(=O)N2CCN(c3ccc(-c4ncccn4)cc3)CC2)C1; conditions: max 5 µM
Summary of the method: as §1

Olaparib = compound: O=C(c1cc(Cc2n[nH]c(=O)c3ccccc23)ccc1F)N1CCN(C(=O)C2CC2)CC1 [Olaparib]; conditions: max 10 µM
Summary of the method: as §1

5-Fluorouracil = compound: O=c1[nH]cc(F)c(=O)[nH]1 [5-Fluorouracil]; conditions: max 20 µM
Summary of the method: as §1

With EN (Endometrial Carcinoma) the “IC50, cell viability 72 h” value (Carboplatin) was > 10000 nM, the “IC50, cell viability 72 h” value (AZD5363) was 5500 nM and the “IC50, cell viability 72 h” value (AZD1775) was 770 nM. For the same cell line, the “IC50, cell viability 72 h” value (Trametinib) was > 1000 nM, the “IC50, cell viability 72 h” value (Paclitaxel) was 798 nM and the “IC50, cell viability 72 h” value (Palbociclib) was > 10000 nM. For the same cell line, the “IC50, cell viability 72 h” value (AZD1390) was > 300 nM, the “IC50, cell viability 72 h” value (Venetoclax) was > 1000 nM and the “IC50, cell viability 72 h” value (Dasatinib) was > 2000 nM. For the same cell line, the “IC50, cell viability 72 h” value (SG3199) was > 1 nM, the “IC50, cell viability 72 h” value (AZD2811) was 947 nM and the “IC50, cell viability 72 h” value (SN-38) was > 300 nM. The “IC50, cell viability 72 h” value (AZD0156) was > 3000 nM, the “IC50, cell viability 72 h” value (AZD4320) was > 1000 nM and the “IC50, cell viability 72 h” value (Alisertib) was 3670 nM. For the same cell line, the “IC50, cell viability 72 h” value (Etoposide) was > 10000 nM, the “IC50, cell viability 72 h” value (Gefitinib) was > 10000 nM and the “IC50, cell viability 72 h” value (Prexasertib) was 41.3 nM. The “IC50, cell viability 72 h” value (Doxorubicin) was > 1000 nM, the “IC50, cell viability 72 h” value (AZD5153) was > 1000 nM and the “IC50, cell viability 72 h” value (Lapatinib) was > 10000 nM. For the same cell line, the “IC50, cell viability 72 h” value (AZD8186) was > 10000 nM, the “IC50, cell viability 72 h” value (Crizotinib) was > 10000 nM and the “IC50, cell viability 72 h” value (Savolitinib) was > 1000 nM. For the same cell line, the “IC50, cell viability 72 h” value (AZD6738) was 8640 nM, the “IC50, cell viability 72 h” value (AZD5991) was > 1000 nM and the “IC50, cell viability 72 h” value (AZD7648) was > 10000 nM. For the same cell line, the “IC50, cell viability 72 h” value (Taselisib) was 2730 nM, the “IC50, cell viability 72 h” value (Selumetinib) was > 10000 nM and the “IC50, cell viability 72 h” value (SRA737) was > 10000 nM. The “IC50, cell viability 72 h” value (MK-2206) was 8080 nM, the “IC50, cell viability 72 h” value (Gemcitabine) was > 300 nM and the “IC50, cell viability 72 h” value [1] was > 5000 nM. For the same cell line, the “IC50, cell viability 72 h” value (Olaparib) was > 10000 nM and the “IC50, cell viability 72 h” value (5-Fluorouracil) was > 20000 nM.
